According to patent publication US9855270B2, “Methods and compositions for modulating estrogen receptor mutants” (priority 2014, dated 2018):
Where two headings read alike, the source gives them in different places.

Assays:
[1] = tested on: MCF-7 cells stably expressing EF1 HA-ER-α wild-type; experiment: MCF-7 Stable Cell Line Viability (EF1 HA-ER-α series); format: cell-based; design: Percent inhibition compared to vehicle: concentration or dose not given beside the values; conditions: EF1 HA-ER-α Wild-type; for Efficacy (Emax): Day 5 relative to Day 0; for EC50: Homo sapiens, MCF7, read-out: Potency (EC50; nM); for Percent inhibition compared to vehicle: 5-Day Incubation
Source text: (§1) MCF-7 Mutant ER-α Stable Cell Line Generation: MCF-7 cells stably expressing wild-type or ER-α mutants were generated by subcloning ESR1 wild-type and mutant cDNAs containing an amino terminal hemagglutinin tag into pCDH-EF1-MCS-(PGK-Puro) (referred to as EF1 HA-ER-α) and pCDH-UbC-MCS-EF1-Hygro (referred to as UbC HA-ER-α) (System Biosciences). The resulting plasmids, in addition to an empty vector negative control, were subsequently cotransfected into HEK293T cells with the pPACKH1 packaging plasmid mix (System Biosciences) according to the manufacturer's protocol. Four days post transfection lentiviral particles were purified from the cell medium, tiered and stored at −80° C. MCF-7 cells were transduced with the purified viral particles and stable cell lines were selected by growth in RPMI containing 10% FBS plus 1 μG/mL puromycin or 200 μG/mL hygromycin for pCDH-EF1-MCS-(PGK-Puro) and pCDH-UbC-MCS-EF1-Hygro, respectively.
(§2) MCF-7 Stable Cell Line Viability: MCF-7 cells were enumerated with a hemacytometer adjusted to a concentration of 40,000 cells per mL in Phenol Free RPMI containing 10% CSS with NEAA and Sodium Pyruvate. 16 microliters of the cell suspension was added to each well of a 384 well tissue culture treated white clear bottom polystyrene plate (Corning) using a Matrix 16 channel electronic pipette. The cells were incubated overnight to allow the cells to adhere. The following day, 16 microliters of Phenol Free RPMI containing 10% CSS with NEAA and Sodium Pyruvate was added to the wells of one plate, followed by 16 μL of CellTiter-Glo (Promega, Madison Wis.) luminescent cell viability reagent using a Matrix 16 channel electronic pipette. […] The “average” of the relative luminescence units (RLUs) of the wells are considered to be the baseline value at time=zero. In addition, a 10 point, 1:5 serial dilution in DMSO (Sigma-Aldrich) was performed using Matrix 12 channel electronic pipette, including DMSO only as […]. 4 μL of each dilution was then added to 196 μL of RPMI containing 10% CSS with NEAA and Sodium Pyruvate. 16 μL of medium containing compound was added to the cells at a final concentration ranging from 10 μM to 5 pM. Compound dilution in media and subsequent addition to cells were carried out using Matrix 12 channel electronic pipettes. After 5 day compound exposure, 16 μL of CellTiter-Glo (Promega, Madison Wis.) luminescent cell viability reagent was added to the cells using a Matrix 16 channel electronic pipette. CellTiter-Glo added to 32 μL of medium without cells was used to obtain a background value. […] The relative luminescence units (RLUs) of each well were measured, and relative proliferation (fold) of each sample was determined as follows: (RLU sample−RLU background)/(RLU at T=0)=relative proliferation
(§3) The UbC promoter is reported by the manufacturer (System Biosciences) to express low to moderate RNA levels while the EF1 promoter expresses high levels (System Biosciences).

[2] = tested on: MCF-7 cells transduced with an empty EF1 lentiviral vector (negative control); experiment: as above; format: cell-based; design: Percent inhibition compared to vehicle: concentration or dose not given beside the values; conditions: for EC50: Homo sapiens, MCF7, Receptor None (empty EF1 lentiviral vector), read-out: Potency (EC50; nM); for Efficacy (Emax) / Percent inhibition compared to vehicle: Receptor None (empty EF1 lentiviral vector); for Efficacy (Emax): Day 5 relative to Day 0; for Percent inhibition compared to vehicle: 5-Day Incubation
Source text: as §1, §2, §3

[3] = tested on: MCF-7 cells stably expressing UbC HA-ER-α wild-type; experiment: MCF-7 Stable Cell Line Viability (UbC HA-ER-α series); format: cell-based; conditions: UbC HA-ER-α Wild-type; for EC50: Homo sapiens, MCF7, read-out: Potency (EC50; nM); for Efficacy (Emax): Day 5 relative to Day 0; for Percent inhibition compared to vehicle: 5-Day Incubation
Source text: as §1, §2, §3

[4] = tested on: MCF-7 cells (negative control); experiment: as above; format: cell-based; conditions: for EC50: Homo sapiens
Source text: as §1, §2, §3

wild-type ER-α = target: T1, wild-type ER-α (Homo sapiens, UniProt P03372)
T1 sequence (P03372 1-595): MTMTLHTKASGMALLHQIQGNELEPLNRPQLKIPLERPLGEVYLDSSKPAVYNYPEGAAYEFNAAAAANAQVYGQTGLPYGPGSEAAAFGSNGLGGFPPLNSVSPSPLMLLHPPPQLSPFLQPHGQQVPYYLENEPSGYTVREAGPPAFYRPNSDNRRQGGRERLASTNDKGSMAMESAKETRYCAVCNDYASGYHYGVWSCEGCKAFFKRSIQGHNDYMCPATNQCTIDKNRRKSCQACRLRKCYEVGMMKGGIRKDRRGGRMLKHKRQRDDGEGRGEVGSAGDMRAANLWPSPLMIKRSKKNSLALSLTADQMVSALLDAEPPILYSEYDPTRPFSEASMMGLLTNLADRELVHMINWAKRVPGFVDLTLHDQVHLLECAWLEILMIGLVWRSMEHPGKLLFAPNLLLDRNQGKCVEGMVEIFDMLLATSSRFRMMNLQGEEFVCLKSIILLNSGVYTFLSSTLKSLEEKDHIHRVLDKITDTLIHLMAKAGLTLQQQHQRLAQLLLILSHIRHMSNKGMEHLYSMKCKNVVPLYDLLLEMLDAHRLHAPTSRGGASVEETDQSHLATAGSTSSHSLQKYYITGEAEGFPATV

[5] = tested on: MCF-7 cells stably expressing ER-α mutants; conditions: 5 day proliferation assays; depending on the mutation and assay format
Description: Potency and efficacy of ERM 1-3 were measured in vitro in ER dependent transcriptional reporter assays and viability assays of MCF-7 cells stably expressing ER-α mutants.
as §1
MCF-7 Stable Cell Line Viability: MCF-7 cells were enumerated with a hemacytometer adjusted to a concentration of 40,000 cells per mL in Phenol Free RPMI containing 10% CSS with NEAA and Sodium Pyruvate. 16 microliters of the cell suspension was added to each well of a 384 well tissue culture treated white clear bottom polystyrene plate (Corning) using a Matrix 16 channel electronic pipette. The cells were incubated overnight to allow the cells to adhere. […] The “average” of the relative luminescence units (RLUs) of the wells are considered to be the baseline value at time=zero. […] The relative luminescence units (RLUs) of each well were measured, and relative proliferation (fold) of each sample was determined as follows: (RLU sample−RLU background)/(RLU at T=0)=relative proliferation
Potency and efficacy of ERM 4-23 were measured in vitro in ER dependent transcriptional reporter assays and viability assays of MCF-7 cells stably expressing ER-α mutants.

[6] = Antagonist Mode, −E2 (Table 27)
[7] = Receptor None (MCF-7 negative control), Agonist Mode, −E2, Day 5 relative to Day 0
[8] = Agonist Mode, −E2, relative to vehicle treated wild-type ER-α
[9] = Antagonist Mode, +E2, relative to vehicle treated wild-type ER-α
[10] = MCF7, read-out: Potency (EC50; nM), Receptor None (MCF-7 negative control), Agonist Mode, −E2
[11] = MCF7, read-out: Potency (EC50; nM), Receptor None (MCF-7 negative control), Antagonist Mode, +E2
[12] = Receptor None (MCF-7 negative control), Agonist Mode, −E2, 5-Day Incubation
[13] = Receptor None (MCF-7 negative control), Antagonist Mode, +E2, 5-Day Incubation
[14] = Receptor None (MCF-7 negative control), Antagonist Mode, +E2, Day 5 relative to Day 0

Structure (SMILES)	Efficacy (Emax) ([1]; Agonist Mode, −E2)	Efficacy (Emax) ([1]; Antagonist Mode, +E2)	EC50 ([1]; Agonist Mode, −E2) [nM]	EC50 [1, 6] [nM]	EC50 ([2]; Agonist Mode, −E2) [nM]	EC50 [2, 6] [nM]	Efficacy (Emax) ([2]; Antagonist Mode, +E2)	EC50 ([3]; Agonist Mode, −E2) [nM]	Efficacy (Emax) ([3]; Agonist Mode, −E2)	Efficacy (Emax) ([3]; Antagonist Mode, +E2)	Efficacy (Emax) [4, 7]	Percent inhibition compared to vehicle ([1]; Agonist Mode, −E2) [%]	Percent inhibition compared to vehicle ([1]; Antagonist Mode, +E2) [%]	EC50 ([1]; Antagonist Mode, +E2) [nM]	EC50 ([2]; Antagonist Mode, +E2) [nM]	Percent inhibition compared to vehicle ([2]; Agonist Mode, −E2) [%]	Efficacy (Emax) ([2]; Agonist Mode, −E2)	Percent inhibition compared to vehicle ([2]; Antagonist Mode, +E2) [%]	Efficacy (Emax) (wild-type ER-α; [8])	Efficacy (Emax) (wild-type ER-α; [9])	also measured
C[C@]12CC[C@@H]3c4ccc(O)cc4CC[C@H]3[C@@H]1CC[C@@H]2O [17β-Estradiol]	7.35 ± 1.28	6.67 ± 1.25	0.518 ± 0.699	0.518 ± 0.699	0.02 ± 0.001	0.02 ± 0.001	4.24 ± 0.90	0.101 ± 0.16	4.43 ± 0.88	5.12 ± 1.52	4.12 ± 0.88										EC50 ([4]; MCF7, Receptor None (MCF-7 negative control), Agonist Mode, −E2, read-out: Potency (EC50; nM)): 0.279 ± 0.518 nM
CC1=C(c2cccc(O)c2)[C@H](c2ccc(OCCN3CC(CF)C3)cc2)Oc2ccc(O)cc21 [Compound 4-23, (S)-2-(4-(2-(3-(fluoromethyl)azetidin-1-yl)ethoxy)phenyl)-3-(3-hydroxyphenyl)-4-methyl-2H-chromen-6-ol]	2.17 ± 0.03	2.17 ± 0.29		2.13 ± 2.06		0.286 ± 0.294	0.96 ± 0.12	4.04 ± 8.01	1.13 ± 0.13	1.20 ± 0.10	1.20 ± 0.27	62	68	8.65 ± 10.5	2.81 ± 3.28	52	1.06 ± 0.24	76	0.14 ± 0.10	0.08 ± 0.07	Percent inhibition compared to vehicle (wild-type ER-α; Agonist Mode, −E2): 86%; Percent inhibition compared to vehicle (wild-type ER-α; Antagonist Mode, +E2): 96%; EC50 ([3]; Antagonist Mode, +E2): 0.599 ± 0.3 nM; Percent inhibition compared to vehicle ([3]; Agonist Mode, −E2): 39%; Percent inhibition compared to vehicle ([3]; Antagonist Mode, +E2): 76%; EC50 [4, 10]: 0.227 ± 0.21 nM; EC50 [4, 11]: 0.378 ± 0.216 nM; Percent inhibition compared to vehicle [4, 12]: 31%; Percent inhibition compared to vehicle [4, 13]: 66%; Efficacy (Emax) [4, 14]: 1.08 ± 0.04; reduced the number of viable cells (compared to DMSO control) [5]: 49%-90%
C[C@]12CC[C@@H]3c4ccc(O)cc4C[C@@H](CCCCCCCCC[S+]([O-])CCCC(F)(F)C(F)(F)F)[C@H]3[C@@H]1CC[C@@H]2O (stereo partly drawn) [Fulvestrant]	2.12 ± 0.23	2.04 ± 0.10	0.895 ± 0.173	0.895 ± 0.173	0.178 ± 0.129	0.178 ± 0.129	1.04 ± 0.15	0.08 ± 0.042	1.17 ± 0.13	1.23 ± 0.09	1.27 ± 0.24	63	70	3.97 ± 0.955	1.44 ± 0.156	51	1.09 ± 0.16	74	0.15 ± 0.09	0.06 ± 0.08	EC50 ([3]; Antagonist Mode, +E2): 0.516 ± 0.479 nM; Percent inhibition compared to vehicle ([3]; Agonist Mode, −E2): 37%; Percent inhibition compared to vehicle ([3]; Antagonist Mode, +E2): 75%; EC50 [4, 10]: 0.05 ± 0.017 nM; EC50 [4, 11]: 0.327 ± 0.324 nM; Percent inhibition compared to vehicle [4, 12]: 28%; Percent inhibition compared to vehicle [4, 13]: 64%; Efficacy (Emax) [4, 14]: 1.15 ± 0.01
